Measurements published in patent US20210161994A1, “IMPLANTABLE DEVICE FOR THE DELIVERY OF OCTREOTIDE AND METHODS OF USE THEREOF” (Endo Pharmaceuticals Solutions Inc., priority 2008, published 2021).

Legend:
[1] = Release rate of octreotide from polyurethane implantable devices; assay type: physicochemical; settings: Tecophilic HP-60D-05, 5.5% EWC
Text: (§1) Tables 2A-D show release rates of octreotide from three different classes of polyurethane compounds (Tecophilic®, Tecoflex® and Carbothane®). The release rates have been normalized to surface area of the implant, thereby adjusting for slight differences in the size of the various implantable devices. Octreotide is water-soluble as indicated by the Log P value; for the purposes of the data provided, a Log P value of greater than about 2.0 is considered to be not readily soluble in aqueous solution. The polyurethanes were selected to have varying affinities for water soluble active agents and varying flexibility (as indicated by the variation in flex modulus).
Polyurethanes are available or can be prepared, for example, with a range of EWCs or flex moduli (Table 2). Tables 2A-B show normalized release rates for various active ingredients from polyurethane compounds. Tables […] show the non-normalized release rates for the same active ingredients, together with implant composition.

[2] = Log P (partition coefficient); assay type: physicochemical
Text: as §1
The solubility of an active agent in an aqueous environment can be measured and predicted based on its partition coefficient (defined as the ratio of concentration of compound in aqueous phase to the concentration in an immiscible solvent). The partition coefficient (P) is a measure of how well a substance partitions between a lipid (oil) and water. The measure of solubility based on P is often given as Log P. In general, solubility is determined by Log P and melting point (which is affected by the size and structure of the compounds). Typically, the lower the Log P value, the more soluble the compound is in water. […]

C[C@@H](O)[C@@H]1NC(=O)[C@H](CCCCN)NC(=O)[C@@H](Cc2c[nH]c3ccccc23)NC(=O)[C@H](Cc2ccccc2)NC(=O)[C@@H](NC(=O)[C@H](N)Cc2ccccc2)CSSC[C@@H](C(=O)N[C@H](CO)[C@@H](C)O)NC1=O [Octreotide Acetate]
non-normalized release rate [1]: 0
release rate normalized to surface area of the implant ([1]; 10% HPC, 2% SA, 50 mg API): 0
logP [2]: 0.43
